Drawing on ChEMBL document CHEMBL3507680, “University of Dundee, Gates Library screen for HepG2 cell viability”, this text covers cytotoxicity for 98 compounds.

The nature of the data set: Human HepG2 cell viability assay in 384 well format. Also on record: dose 125 nL, time 70.5 hour; cytotoxicity at 70.5 h: concentration not given beside the values. The conditions noted are these: HepG2 cells, read-out: Inhibition. In kind it is toxicity, cell-based.

In the case of `Cc1nccc(CNS(=O)(=O)N(C)Cc2ccc(Cl)cc2)n1`, the cytotoxicity at 70.5 h amounted to 8.78%. Regarding `O=C1CC(NS(=O)(=O)N2CCOCC2)CN1Cc1ccccc1` (stereo not drawn), the cytotoxicity at 70.5 h is -5.68%. Regarding `CN(C)C(=O)c1cccc(NC(=O)N2CCCC(C(F)(F)F)C2)c1` (stereo not drawn), the cytotoxicity at 70.5 h is -8.44%.

Take `O=C(CN1CCCNC1=O)Nc1ccccc1SC(F)(F)F`: the cytotoxicity at 70.5 h came to 21.5%.

Take `c1ccc2nc(N3CCCC(Cn4cncn4)C3)cnc2c1` (stereo not drawn): the cytotoxicity at 70.5 h is -1.5%.

`O=C(NCC[S+]([O-])c1ccccc1)NCC(F)(F)F` (stereo not drawn): the cytotoxicity at 70.5 h is -7.27%. As to `CCN(c1ccc(C(=O)NCc2cc[nH]n2)cc1)C(C)C`, the cytotoxicity at 70.5 h was found to be 22.1%. Next, `CC(C)(O)CNc1ccc(C#N)c(C(F)(F)F)c1`: -1.99%; `O=C(CN1CCCNC1=O)Nc1ccccc1C(=O)C1CCCC1`: -0.928%; `Cc1cc(CCC(=O)N2CCC(O)CC2)ccc1Br`: -0.947%.

`CN(CC(F)F)C(=O)c1cn(-c2ccc(Br)cc2)cn1`: the cytotoxicity at 70.5 h was 3.66%. Next, `CSC(C)(C)CNC(=O)NCC[S+]([O-])c1ccccc1` (stereo not drawn): -6.22%; `CC(C)c1nc(CNc2ccc(CCO)cc2)cs1`: 25.6%.

As for `CCN(C(=O)CN(CC(N)=O)C(C)C)C1=CCCC1`, the cytotoxicity at 70.5 h is 22.8%. Consider `Cc1cc(Br)cnc1NCCN1CCC(N(C)C)CC1`, for which the cytotoxicity at 70.5 h was -4.2%. Turning to `CCc1nc(CNCC2(C(N)=O)CCOCC2)cs1`, the cytotoxicity at 70.5 h is -4.76%.

For the compound `COC1CCN(CCNc2ncc(Br)cc2C)CC1`, the cytotoxicity at 70.5 h was -1.86%. The result for `Cc1nn(C)c(Oc2cccnc2)c1NC(=O)C1CCCO1` (stereo not drawn) reads -3.71%; that for `CC(Cn1cccn1)NCc1csc(-c2ccc3c(c2)OCO3)n1` (stereo not drawn), -5.39%. The result for `Cc1nn(C)c(Oc2cccc(F)c2)c1NC(=O)C1CCOCC1` reads -14.1%.

Regarding `CC(Cn1cccn1)NCc1nc(-c2ccc3c(c2)OCO3)no1` (stereo not drawn), the cytotoxicity at 70.5 h amounted to 13%. As to `O=C(Nc1ncn(Cc2cccc(Br)c2)n1)C1CCC1`, the cytotoxicity at 70.5 h was -13.9%. `O=C(NCc1nnc2n1CCC2)N1CCC2(CCCCC2)CC1`: the cytotoxicity at 70.5 h was -12.2%. The result for `CCc1nc(CC(=O)NCC2(C(N)=O)CCOCC2)cs1` reads -6.76%. In the case of `CN(CC(=O)N(C)C1CCCCC1)Cc1nc2ccccc2c(=O)[nH]1`, the cytotoxicity at 70.5 h was -6.53%. Take `CCN(CC)c1ccc(CNS(=O)(=O)C2CCOCC2)cc1F`: the cytotoxicity at 70.5 h was -10.6%. Consider `CS(=O)(=O)Cc1nc(CN2CCC(C(F)(F)F)CC2)cs1`, for which the cytotoxicity at 70.5 h is -8.36%. Next, `CS(=O)(=O)Cc1nc(CN2CC=C(c3ccccc3)CC2)cs1`: -10.5%. Consider `Cc1ccccc1NS(=O)(=O)c1ccc(C(=O)O)cc1F`, for which the cytotoxicity at 70.5 h was -2.98%.

For the compound `O=C1NC2(Nc3ncccc31)C(=O)Nc1c2ccc(Cl)c1F` (stereo not drawn), the cytotoxicity at 70.5 h is -6.95%. On to `CNC(=O)Cc1noc(Cc2cccc(Cl)c2)n1`, for which the cytotoxicity at 70.5 h was -12.1%. On to `Cn1cc(NC(=O)c2ccccn2)cc(Br)c1=O`, for which the cytotoxicity at 70.5 h is -4.48%. The result for `Cc1cc(=O)c(C(=O)N(C)Cc2ccc(Cl)c(F)c2)c[nH]1` reads -1.6%. Next, `Cc1csc(N2CCC(NCC3(O)CCc4ccccc43)CC2)n1` (stereo not drawn): -7.31%; `CC(C1CC1)N(C)C(=O)CCn1cccn1` (stereo not drawn): 8.62%. The result for `CN(CC(=O)N(C)C1CCCCC1)Cc1nc2c(cnn2C)c(=O)[nH]1` reads 8.15%. Turning to `OC1(CNC2CCN(Cc3ccncc3)CC2)CCc2ccccc21` (stereo not drawn), the cytotoxicity at 70.5 h was -5.39%. As for `CC(NCCCC#N)c1ccc(S(C)(=O)=O)c(F)c1` (stereo not drawn), the cytotoxicity at 70.5 h was found to be 9.59%. Next, `Cc1nc(CN2C[C@@H]3CN(C(=O)CC(F)(F)F)C[C@@H]3C2=O)cs1`: -9.18%. `CC(=O)NCC(=O)N1Cc2nccn2CC(CN2CCCC2=O)C1` (stereo not drawn): the cytotoxicity at 70.5 h is -7.77%.

For `O=C(C1CC=CC1)N1Cc2nccn2CC(CN2CCCC2)C1` (stereo not drawn), the cytotoxicity at 70.5 h was -4.01%. Next, `Cn1ccc(C(=O)NC2CCC23CCN(C(=O)C2CCOCC2)CC3)c1` (stereo not drawn): -4.15%; `CO[C@@H]1CCN(S(=O)(=O)c2cccs2)[C@H]1Cc1ccccc1`: -0.149%. Next, `CCOCC1CN(CC2CC2)Cc2cnn(C)c21` (stereo not drawn): -8.87%; `CO[C@@H]1CCN(Cc2cccs2)[C@H]1Cc1ccncc1`: -0.408%; `Cn1ccc(C(=O)NC2CCC23CCN(C(=O)c2cnccn2)CC3)c1` (stereo not drawn): -7.61%. The result for `Cn1ncc2c1C(COCC1CC1)CN(CC1CC1)C2` (stereo not drawn) reads -6.33%. For `Cn1ncc2c1C(COCC1CC1)CN(S(C)(=O)=O)C2` (stereo not drawn), the cytotoxicity at 70.5 h is -9.85%.

On to `O=C(NCc1cccnc1)N1CCn2c(Cn3cccn3)cnc2C1`, for which the cytotoxicity at 70.5 h is -0.141%.

With `O=C(NCc1ccccc1)N1CCn2c(Cn3cccn3)cnc2C1`, the cytotoxicity at 70.5 h is -2.08%. Next, `CN(C)C(=O)N1CCc2c(COCC3CC3)cncc2C1`: -4.34%; `O=C([C@@H]1CCCO1)N1CCn2c(Cn3cccn3)cnc2C1`: -0.354%. Regarding `CCOCC(=O)N1CC[C@H]2[C@@H]1CCC(=O)N2Cc1csc(C)n1`, the cytotoxicity at 70.5 h is -10.5%. Next, `CCC(CC)CN1CCC2(CCCN(c3ncccn3)C2)C1` (stereo not drawn): 25.1%. The result for `Cc1ccc2c(c1)C1(CCN(C(N)=O)CC1)CN2C(=O)N(C)C` reads -7.46%. `O=C(c1cccnc1)N1CCc2c(COCC3CC3)cncc2C1`: the cytotoxicity at 70.5 h was -2.77%. As for `O=C(c1ccncc1F)N1CCc2ncnc(N3CCOCC3)c2CC1`, the cytotoxicity at 70.5 h is -9.98%.

Turning to `CN(Cc1cccnc1)CC1CNCc2nccn2C1` (stereo not drawn), the cytotoxicity at 70.5 h amounted to 4.1%. Next, `Cc1cccc(C(=O)N2CCc3c(COCC4CC4)cncc3C2)n1`: -10.4%; `O=C(c1ccoc1)N1CCc2c(COCC3CC3)cncc2C1`: 14.9%. With `CN(C)C(=O)NC1COC2(CCN(Cc3ccco3)CC2)C1` (stereo not drawn), the cytotoxicity at 70.5 h is -12.8%. Next, `CN(C)C(=O)NC1COC2(CCN(S(=O)(=O)c3ccccc3)CC2)C1` (stereo not drawn): -10.3%. In the case of `O=C(O)c1cc2c(nc1-c1ccncc1)CCN(Cc1ccoc1)CC2`, the cytotoxicity at 70.5 h was -7.98%.

Turning to `CO[C@H]1CCN(Cc2nccs2)C[C@@H]1Cc1ccccc1`, the cytotoxicity at 70.5 h was -0.233%.

As to `Cc1ccc(N2C[C@H]3OCC[C@H]3[C@H](C(=O)NC3CCC3)C2)nn1`, the cytotoxicity at 70.5 h was -13%. The result for `CN(C)C(=O)c1cnc2n1CCN(Cc1ccncc1)C2` reads 19.9%; that for `CC(NCc1cccc(C#N)c1)c1ccccn1` (stereo not drawn), -6.12%; that for `COc1cc(CNC(C)Cn2cccn2)cc2c1OCO2` (stereo not drawn), -9.7%. Next, `CN(C)C(=O)N1CC2(CCNCC2)c2cc(Cl)ccc21`: 24.1%.

As to `Cc1nc(CN2C[C@@H]3CN(C(=O)NC(C)C)C[C@@H]3C2=O)cs1`, the cytotoxicity at 70.5 h is -5.1%.

Regarding `O=C(NC1CCCC1)[C@H]1C[C@H]2OCC[C@H]2N(Cc2ccoc2)C1`, the cytotoxicity at 70.5 h is -4.07%. Regarding `COCCNC(=O)[C@H]1C[C@H]2OCC[C@H]2N(Cc2ccoc2)C1`, the cytotoxicity at 70.5 h is -3.39%. As to `O=C1CCCN1Cc1ncn2c1CN(Cc1cccs1)CCC2`, the cytotoxicity at 70.5 h is -1.34%. In the case of `CC1CCN(C(=O)[C@@H]2C[C@H]3OCC[C@H]3N(Cc3ccoc3)C2)CC1`, the cytotoxicity at 70.5 h is -2.6%. Next, `Cc1noc([C@@H]2C[C@H]3OCC[C@H]3N(Cc3cc(C)c(C)o3)C2)n1`: -6.09%; `Cc1cc(CN2C[C@@H]3COC[C@]3(CNC(=O)N(C)C)C2)no1`: -1.07%. Regarding `CN(C)c1ncnc2c1CCN(C(=O)c1cccnc1)CC2`, the cytotoxicity at 70.5 h is -6.66%.

Take `CCc1ncnc2c1CCN(C(=O)c1ccncc1F)CC2`: the cytotoxicity at 70.5 h is -6.52%. On to `O=C(NC1CC1)N1CCn2c(Cn3cccn3)cnc2C1`, for which the cytotoxicity at 70.5 h was -5.68%. Next, `CCOCC1CN(C(=O)Cc2ccsc2)Cc2ccnn2C1` (stereo not drawn): -6.83%. Next, `O=C1CC(c2ccncc2)C2(CCN(C(=O)c3cccs3)CC2)N1` (stereo not drawn): 43.8%; `Cn1cnc2c1C(COCC1CCOCC1)CN(C(=O)c1ccco1)C2` (stereo not drawn): -8.23%; `Cc1ccccc1C(=O)N1C[C@@H]2CCN(c3cccnc3)C[C@@H]2C1`: -4.88%. Next, `O=C(c1ccc(F)cc1)N1C[C@@H]2CCN(c3cccnc3)C[C@@H]2C1`: -11.2%; `Cc1ccc(C(=O)N2C[C@@H]3CCN(c4cccnc4)C[C@@H]3C2)cn1`: -12.4%; `O=C(C1CCCC1)N1C[C@@H]2CCN(c3cccnc3)C[C@@H]2C1`: -11.4%. As to `CCS(=O)(=O)N1Cc2ncn(C)c2C(COCC2CCOCC2)C1` (stereo not drawn), the cytotoxicity at 70.5 h was -3.96%. Next, `Cn1cnc2c1C(COCC1CCOCC1)CN(C(=O)C1CC=CC1)C2` (stereo not drawn): -2.11%; `Cc1ccc(N2C[C@H](C(=O)NCC3CC3)[C@@H]3CCO[C@@H]3C2)nn1`: -9.32%. The result for `Cc1nc[nH]c1CN1C[C@@H]2OCCN(c3ncccn3)[C@@H]2C1` reads -10.6%; that for `CN(C)C(=O)CN1C(=O)C[C@@H]2[C@@H]1CCN2Cc1cccc(C#N)c1`, 6.8%. `CN(C)C(=O)c1cnc2n1CCN(Cc1ccsc1)C2`: the cytotoxicity at 70.5 h worked out at 2.92%. The result for `Cc1noc(C)c1CN1Cc2cnn(C)c2C(COCC2CC2)C1` (stereo not drawn) reads -10.8%.

Regarding `c1ccc(CN2CCc3ncnc(-c4ccncc4)c3CC2)nc1`, the cytotoxicity at 70.5 h was found to be 22.4%. The result for `Cc1ccc(CN2CC[C@H]3C(=O)N(Cc4cccnc4)CCO[C@H]3C2)o1` reads -8.65%. `CN(C)[C@@H]1CCN(C(=O)c2ccsc2)[C@H]1Cc1cccnc1`: the cytotoxicity at 70.5 h was determined as 2.91%. For the compound `CCOCC1CN(CCN2CCCCC2)Cc2cnn(C)c21` (stereo not drawn), the cytotoxicity at 70.5 h was 2.16%. In the case of `Cn1cnc2c1C(COCC1CCOCC1)CN(Cc1ccccn1)C2` (stereo not drawn), the cytotoxicity at 70.5 h is -15.9%.
